Data published in patent US20100240040A1, “METHOD FOR SCREENING FOR SELECTIVE MODULATOR OF THE NF-KB PATHWAY ACTIVATION” (INSTITUT PASTEUR, priority 2007, published 2010).
Where a SMILES comes first, the peptide text is derived from it.

How the values were obtained:
NF-κB pathway = assay: NF-κB inhibition assay (β-galactosidase reporter) in 70Z/3-C3 cells; format: cell-based; details: pre-B 70Z3 lymphocytes activated with PMA, IL-1 or LPS; similar for the stimuli; read-out: IC50 of inhibition of the NF-kB pathway
Experimental: 4.5×10^5 70Z/3-C3 cells in 450 μl of 10% FCS-RPMI (Invitrogen) were incubated with 0-20 μM peptide BA-DR NLM or BA-NLM. After 2 h at 37° C., 200 μl of cell samples were transferred in duplicate to a 96-well micro titer plate. One well was treated for 4 h with either 15 μg/ml LPS, 20 ng/ml IL1-β or 100 ng/ml PMA. A control well was left untreated. After 4 h at 37° C., cells were centrifuged at 400×g for 5 min at room temperature, the pellets were washed three times with cold PBS (200 μl), and the cells were lysed in 100 μl of lysis buffer (25 mM tris-phosphate buffer at pH7.8 containing 8 mM MgCl2, 1 mM dithioerythreitol, 1% Triton X-100, 15% glycerol and a protease inhibitor mixture (Roche Applied Science, ref. 1836145)). The lysate was centrifuged at 1000×g for 20 min at 4° C., and supernatant was kept on ice before performing the β-galactosidase assay. β-galactosidase assays were performed on 50 μl of the supernatant and in an assay mix containing 4 μl of Galacton-star chemiluminescent substrate and 196 μl of reaction buffer (Clonetech). The activity was measured with a plate luminometer (Berthold).

ERK and p38 pathway = assay: SRE-luc reporter assay in Jurkat cells stimulated with PMA and ionomycin; format: cell-based, human; details: 5 μM peptide, T-lymphocytes
Experimental: Jurkat T cells (clone 20) were transiently transfected by a DEAE-dextran method with a reporter plasmid containing the luciferase under the control of a promoter inducible by the ERK and p38 pathway (SRE-luc; Courtois et al., 1997, Mol. Cell. Biol, 17:1441-1449), the NF-AT pathway or the API pathway (respectively NF-AT-luc and AP1-luc; Northrop et al., 1993, J. Biol. […]., 268:2917-2923). Briefly, cells were washed and resuspended at 10^7 cells/ml in TBS containing 0.5 mg/ml of DEAE-dextran (Pharmacia). 1 μg per 2·10^6 cells of reporter plasmid was added. After 45 min at room temperature, the cells were diluted with 10 volumes of TBS, centrifuged, and resuspended at 10^6 cells/ml in 10% FCS-RPMI. After 24 h, cells were incubated with or without 5 μM NEMO-derived peptides (BA-NLM or BA-DR NLM) for 2 h. They were stimulated or mock-stimulated with 100 ng/ml PMA and 1 μg/ml ionomycin for 5 h, and finally lysed in luciferase buffer (25 mM Tris-phosphate pH 7.8 containing 8 mM MgCl2, 1 mM DTE, 1% Triton X100, 15% glycerol). Luciferase measurement was carried out in a Berthold Luminometer.

[1] = target: T1, CC2-LZ interaction with cellular polyubiquitinylated proteins (Mus musculus, UniProt O88522); assay: Pull-down of polyubiquitinylated proteins from JM4.5.2 extracts with biotinylated CC2-LZ, anti-ubiquitin Western blot; format: biochemical; details: 20 μM peptide, extracts of TNF-α stimulated JM4.5.2 cells
T1 construct: made in house; host or cells: chemical synthesis (bait); crude extract of JM4.5.2 cells with or without TNFα (partners)
T1 sequence (O88522 253-336): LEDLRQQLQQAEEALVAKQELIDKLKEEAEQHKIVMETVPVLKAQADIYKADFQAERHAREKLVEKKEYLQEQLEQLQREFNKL
Experimental: 24·10^7 JM4.5.2 cells were stimulated or not with 10 ng/ml of TNFα for 10 minutes at 37° C., washed twice with cold PBS and lysed in 900 μl of lysis buffer containing a protease inhibitor mixture as indicated in Example 1.D. Lysates were clarified at 15 000×g at 4° C. for 30 min. 150 μl of proteins were incubated 2 h at 4° C. with 150 μl of streptavidin magnetic beads (MagPrep®, Novagen) pre-incubated 1 h at 4° C. with 10 μg of biotynilated-CC2-LZ and with or without 20 μM of peptides (BA-NLM or BA-DR NLM). Beads were washed 4 times in buffer A (10 mM Hepes pH 7.5, 150 mM NaCl, 8 mM MgCl2, 10% glycerol, 0.1 mM DDM and 1 mM DTE) and resuspended in 30 μl of laemmli buffer containing 6 M Urea. Samples were analysed by Western blotting using anti-ubiquitin antibodies (Sigma) as well as anti-NDPK-B antibodies for loading controls.
Thus, the Inventors examined whether DR NLM impedes the interaction between NEMO and the K63 polyubiquitin chains. To this end, they developed a pull down assay which uses the a peptide comprising the CC2 and the LZ domains of NEMO as a bait to pull down the polyubiquitinylated proteins as described in Example 1.J and depicted in FIG. 7A. […] After extensive washing of beads, all mono and polyubiquitinylated proteins bound to CC2-LZ were analysed by Western blot using anti-ubiquitin antibody (Sigma).

[2] = target: T2, Lys63-linked polyubiquitin chains (Homo sapiens, UniProt P0CG47); assay: In vitro binding assay by fluorescence polarization to polyubiquitin chains; details: tag-free peptide
T2 construct: the Lys63-linked polyubiquitin chains; purchased Boston Biochem

IC50 (NF-κB pathway): 0.9 µM
cooperativity index (Hill coefficient) n [2]: 1
Kd ([2]; read-out: dissociation constant for Lys63-linked polyubiquitin chains): 250 µM
Compound: CC[C@H](C)[C@H](NC(=O)[C@H](CC(=O)O)NC(=O)[C@H](C)NC(=O)[C@H](CCC(N)=O)NC(=O)[C@H](C)NC(=O)[C@H](CCCCN)NC(=O)[C@H](CC(C)C)NC(C)=O)C(=O)N[C@@H](Cc1ccc(O)cc1)C(=O)N[C@@H](CCCCN)C(=O)N[C@@H](C)C(=O)N[C@@H](CCCNC(=N)N)C(=O)N[C@@H](Cc1ccccc1)C(=O)N[C@@H](CCC(N)=O)C(=O)N[C@@H](C)C(=O)N[C@@H](CCC(=O)O)C(=O)N[C@@H](CCCNC(=N)N)C(=O)N[C@@H](Cc1c[nH]cn1)C(=O)N[C@@H](C)C(=O)N[C@@H](CCCNC(=N)N)C(=O)N[C@@H](CCC(=O)O)C(=O)N[C@@H](CCCCN)C(N)=O [DR NLM] (Ac-LKAQADIYKARFQAERHAREK-NH2; N-terminus and C-terminus assumed)
effect on ERK and p38 pathways (ERK and p38 pathway): does not abrogate
inhibition of CC2-LZ interaction with polyubiquitinylated proteins [1]: abolishes the CC2-LZ interaction with the cellular polyubiquitinylated proteins
